Measured values as given in ChEMBL document CHEMBL4831544, “Discovery of IHMT-EZH2-115 as a Potent and Selective Enhancer of Zeste Homolog 2 (EZH2) Inhibitor for the Treatment of B-Cell Lymphomas” (J Med Chem, 2021).

What was measured:
[1] = Half life in rat at 10 mg/kg, po; type: ADME, organism-based; details: in vivo
[2] = Apparent volume of distribution in rat at 10 mg/kg, po; type: ADME, organism-based; details: in vivo
[3] = AUC (0 to infinity) in rat at 1 mg/kg, iv; type: ADME, organism-based; parameters: route intravenous, time infinity, dose 1 mg/kg; details: in vivo
[4] = Apparent volume of distribution in rat at 1 mg/kg, iv; type: ADME, organism-based; details: in vivo, read-out: Vz
[5] = target: Histone-lysine N-methyltransferase EHMT1 (Homo sapiens) (UniProt Q9H9B1); experiment: Inhibition of GLP (unknown origin) at 10 uM using SAM as substrate measured up to 960 mins by AlphaScreen microplate reader assay relative to control; details: time min <=960
Chain of Histone-lysine N-methyltransferase EHMT1 (Homo sapiens) (Q9H9B1 whole entry): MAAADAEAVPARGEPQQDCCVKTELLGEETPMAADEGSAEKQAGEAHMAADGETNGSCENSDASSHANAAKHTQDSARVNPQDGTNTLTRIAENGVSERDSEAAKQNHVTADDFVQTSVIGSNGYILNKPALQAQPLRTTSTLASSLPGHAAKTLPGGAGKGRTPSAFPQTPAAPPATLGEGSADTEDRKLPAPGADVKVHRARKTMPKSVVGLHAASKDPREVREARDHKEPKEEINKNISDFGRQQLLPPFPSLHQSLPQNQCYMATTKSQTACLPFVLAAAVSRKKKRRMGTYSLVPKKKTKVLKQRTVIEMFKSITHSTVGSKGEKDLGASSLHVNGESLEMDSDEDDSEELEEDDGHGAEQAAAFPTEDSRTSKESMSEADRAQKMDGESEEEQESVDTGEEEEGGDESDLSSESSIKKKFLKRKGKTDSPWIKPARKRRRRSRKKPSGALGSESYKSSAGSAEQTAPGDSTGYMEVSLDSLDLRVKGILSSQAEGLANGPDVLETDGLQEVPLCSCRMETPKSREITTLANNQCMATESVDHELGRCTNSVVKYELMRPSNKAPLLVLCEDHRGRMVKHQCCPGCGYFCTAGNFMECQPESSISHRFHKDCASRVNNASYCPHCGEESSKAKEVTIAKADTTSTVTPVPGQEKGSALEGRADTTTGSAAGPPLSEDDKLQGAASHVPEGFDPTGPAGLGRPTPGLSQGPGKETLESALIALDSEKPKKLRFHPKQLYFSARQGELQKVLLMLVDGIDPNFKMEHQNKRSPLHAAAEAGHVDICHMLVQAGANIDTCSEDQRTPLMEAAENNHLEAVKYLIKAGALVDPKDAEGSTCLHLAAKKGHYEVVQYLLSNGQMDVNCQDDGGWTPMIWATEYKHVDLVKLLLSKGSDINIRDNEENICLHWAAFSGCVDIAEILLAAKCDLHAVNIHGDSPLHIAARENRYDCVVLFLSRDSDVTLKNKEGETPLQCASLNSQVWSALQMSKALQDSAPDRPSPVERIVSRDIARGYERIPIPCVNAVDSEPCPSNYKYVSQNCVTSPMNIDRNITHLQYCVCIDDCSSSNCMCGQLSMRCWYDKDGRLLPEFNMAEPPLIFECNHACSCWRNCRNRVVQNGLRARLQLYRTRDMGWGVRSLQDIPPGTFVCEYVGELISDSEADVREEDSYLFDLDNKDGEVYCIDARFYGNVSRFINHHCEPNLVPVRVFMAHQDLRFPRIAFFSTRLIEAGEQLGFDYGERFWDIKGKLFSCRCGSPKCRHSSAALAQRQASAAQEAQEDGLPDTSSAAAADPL

[6] = target: Histone-lysine N-methyltransferase SUV39H1 (Homo sapiens) (UniProt O43463); experiment: Inhibition of SUV39H1 (unknown origin) at 10 uM using SAM as substrate measured up to 960 mins by AlphaScreen microplate reader assay relative to control; details: time min <=960
Chain of Histone-lysine N-methyltransferase SUV39H1 (Homo sapiens) (O43463 whole entry): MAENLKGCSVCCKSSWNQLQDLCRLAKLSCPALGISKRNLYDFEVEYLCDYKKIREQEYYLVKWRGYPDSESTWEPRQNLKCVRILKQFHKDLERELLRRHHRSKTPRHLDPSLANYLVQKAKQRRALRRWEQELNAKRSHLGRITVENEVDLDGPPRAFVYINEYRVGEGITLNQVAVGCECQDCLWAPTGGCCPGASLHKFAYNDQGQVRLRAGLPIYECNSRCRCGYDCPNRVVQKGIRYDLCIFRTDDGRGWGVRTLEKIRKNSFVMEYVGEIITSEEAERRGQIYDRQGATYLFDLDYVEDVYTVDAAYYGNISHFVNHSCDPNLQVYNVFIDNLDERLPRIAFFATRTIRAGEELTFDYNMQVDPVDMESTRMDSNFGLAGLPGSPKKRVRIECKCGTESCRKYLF

[7] = target: Histone-lysine N-methyltransferase SUV39H2 (Homo sapiens) (UniProt Q9H5I1); experiment: Inhibition of SUV39H2 (unknown origin) at 10 uM using SAM as substrate measured up to 960 mins by AlphaScreen microplate reader assay relative to control; details: time min <=960
[8] = target: Histone-arginine methyltransferase CARM1 (Homo sapiens) (UniProt Q86X55); experiment: Inhibition of PRMT4 (unknown origin) at 10 uM using SAM as substrate measured up to 960 mins by AlphaScreen microplate reader assay relative to control; details: time min <=960
Chain of Histone-arginine methyltransferase CARM1 (Homo sapiens) (Q86X55 whole entry): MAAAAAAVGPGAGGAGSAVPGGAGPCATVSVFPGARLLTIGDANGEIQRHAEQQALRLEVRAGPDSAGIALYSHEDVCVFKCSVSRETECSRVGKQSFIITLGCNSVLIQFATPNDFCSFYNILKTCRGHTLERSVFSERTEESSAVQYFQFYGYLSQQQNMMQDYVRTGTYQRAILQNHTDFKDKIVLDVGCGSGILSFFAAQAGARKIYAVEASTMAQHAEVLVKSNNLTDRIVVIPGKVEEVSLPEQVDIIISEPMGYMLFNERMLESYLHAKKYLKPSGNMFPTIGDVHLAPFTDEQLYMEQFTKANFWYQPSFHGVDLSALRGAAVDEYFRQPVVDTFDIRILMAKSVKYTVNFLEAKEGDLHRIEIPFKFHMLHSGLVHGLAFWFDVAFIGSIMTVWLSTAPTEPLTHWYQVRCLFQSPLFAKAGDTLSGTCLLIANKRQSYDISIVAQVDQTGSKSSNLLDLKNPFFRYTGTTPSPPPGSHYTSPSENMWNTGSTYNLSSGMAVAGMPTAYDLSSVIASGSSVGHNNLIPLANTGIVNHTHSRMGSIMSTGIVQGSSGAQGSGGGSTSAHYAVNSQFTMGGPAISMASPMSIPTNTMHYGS

[9] = target: Protein arginine N-methyltransferase 5 (Homo sapiens) (UniProt O14744); experiment: Inhibition of PRMT5 (unknown origin) at 10 uM using SAM as substrate measured up to 960 mins by AlphaScreen microplate reader assay relative to control; details: time min <=960
Chain of Protein arginine N-methyltransferase 5 (Homo sapiens) (O14744 whole entry): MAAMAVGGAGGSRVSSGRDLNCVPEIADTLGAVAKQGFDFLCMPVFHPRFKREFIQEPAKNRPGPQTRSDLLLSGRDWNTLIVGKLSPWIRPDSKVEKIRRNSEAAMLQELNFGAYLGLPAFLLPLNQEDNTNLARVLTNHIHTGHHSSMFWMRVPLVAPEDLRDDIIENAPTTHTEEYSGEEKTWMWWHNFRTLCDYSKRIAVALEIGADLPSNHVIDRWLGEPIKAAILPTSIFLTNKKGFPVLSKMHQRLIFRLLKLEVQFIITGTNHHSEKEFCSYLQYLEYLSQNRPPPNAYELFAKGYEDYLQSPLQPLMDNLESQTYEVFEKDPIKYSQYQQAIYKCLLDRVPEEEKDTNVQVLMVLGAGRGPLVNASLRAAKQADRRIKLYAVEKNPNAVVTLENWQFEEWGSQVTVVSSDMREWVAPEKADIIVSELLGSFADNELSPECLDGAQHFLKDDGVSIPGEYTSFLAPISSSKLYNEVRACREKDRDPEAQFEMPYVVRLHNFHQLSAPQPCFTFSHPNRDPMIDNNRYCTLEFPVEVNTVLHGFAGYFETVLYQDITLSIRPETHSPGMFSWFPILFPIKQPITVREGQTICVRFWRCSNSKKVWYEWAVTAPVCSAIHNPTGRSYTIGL

[10] = target: Protein arginine N-methyltransferase 8 (Homo sapiens) (UniProt Q9NR22); experiment: Inhibition of PRMT8 (unknown origin) at 10 uM using SAM as substrate measured up to 960 mins by AlphaScreen microplate reader assay relative to control; details: time min <=960
[11] = target: F-box only protein 11 (Homo sapiens) (UniProt Q86XK2); experiment: Inhibition of PRMT9 (unknown origin) at 10 uM using SAM as substrate measured up to 960 mins by AlphaScreen microplate reader assay relative to control; details: time min <=960
Chain of F-box only protein 11 (Homo sapiens) (Q86XK2 whole entry): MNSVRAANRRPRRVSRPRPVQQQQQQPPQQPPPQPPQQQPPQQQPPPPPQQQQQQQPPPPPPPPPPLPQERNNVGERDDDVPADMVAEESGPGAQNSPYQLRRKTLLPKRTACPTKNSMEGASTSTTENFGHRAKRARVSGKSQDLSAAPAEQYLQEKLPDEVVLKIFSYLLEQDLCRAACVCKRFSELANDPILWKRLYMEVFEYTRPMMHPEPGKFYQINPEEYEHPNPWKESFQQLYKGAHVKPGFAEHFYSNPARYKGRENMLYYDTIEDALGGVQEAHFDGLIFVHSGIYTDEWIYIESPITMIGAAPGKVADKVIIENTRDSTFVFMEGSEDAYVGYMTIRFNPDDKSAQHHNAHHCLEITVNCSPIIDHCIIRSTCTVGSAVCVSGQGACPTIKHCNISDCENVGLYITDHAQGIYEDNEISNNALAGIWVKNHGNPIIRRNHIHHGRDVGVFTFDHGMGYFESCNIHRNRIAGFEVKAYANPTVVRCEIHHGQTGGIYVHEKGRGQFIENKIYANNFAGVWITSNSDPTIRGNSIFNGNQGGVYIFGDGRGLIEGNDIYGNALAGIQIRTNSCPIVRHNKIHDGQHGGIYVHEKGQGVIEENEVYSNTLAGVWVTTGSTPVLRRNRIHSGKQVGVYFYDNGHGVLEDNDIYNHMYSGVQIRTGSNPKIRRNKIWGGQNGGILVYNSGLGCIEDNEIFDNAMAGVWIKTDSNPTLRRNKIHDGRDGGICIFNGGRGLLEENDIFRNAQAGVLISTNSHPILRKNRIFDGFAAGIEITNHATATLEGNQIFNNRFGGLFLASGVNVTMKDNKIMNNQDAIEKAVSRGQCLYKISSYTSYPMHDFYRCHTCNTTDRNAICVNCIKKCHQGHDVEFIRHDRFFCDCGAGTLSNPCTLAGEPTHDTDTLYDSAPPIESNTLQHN

[12] = target: Histone-lysine N-methyltransferase NSD2 (Homo sapiens) (UniProt O96028); experiment: Inhibition of NSD2 (unknown origin) at 10 uM using SAM as substrate measured up to 960 mins by AlphaScreen microplate reader assay relative to control; details: time min <=960
[13] = target: N-lysine methyltransferase KMT5A (Homo sapiens) (UniProt Q9NQR1); experiment: Inhibition of SET8 (unknown origin) at 10 uM using SAM as substrate measured up to 960 mins by AlphaScreen microplate reader assay relative to control; details: time min <=960
Chain of N-lysine methyltransferase KMT5A (Homo sapiens) (Q9NQR1 whole entry): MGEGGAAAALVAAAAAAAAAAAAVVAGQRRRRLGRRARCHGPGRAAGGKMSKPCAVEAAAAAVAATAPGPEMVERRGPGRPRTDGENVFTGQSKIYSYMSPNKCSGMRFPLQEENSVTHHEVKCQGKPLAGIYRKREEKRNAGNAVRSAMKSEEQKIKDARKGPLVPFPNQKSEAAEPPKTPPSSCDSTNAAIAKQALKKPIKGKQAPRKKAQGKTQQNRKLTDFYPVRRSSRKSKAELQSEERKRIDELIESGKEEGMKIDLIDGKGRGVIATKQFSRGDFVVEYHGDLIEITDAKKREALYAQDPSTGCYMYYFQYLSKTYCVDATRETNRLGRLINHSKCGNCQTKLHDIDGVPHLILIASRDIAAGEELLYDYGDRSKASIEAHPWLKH

[14] = system: Histone-lysine N-methyltransferase EZH2 (Homo sapiens), Q15910 [UNDEFINED MUTATION]; experiment: Inhibition of EZH2 A738T mutant (unknown origin) at 10 uM using SAM as substrate measured up to 960 mins by AlphaScreen microplate reader assay relative to control; details: time min <=960
Chain of Histone-lysine N-methyltransferase EZH2 (Homo sapiens), Q15910 [UNDEFINED MUTATION] (Q15910 whole entry, looked up, stated change not applied): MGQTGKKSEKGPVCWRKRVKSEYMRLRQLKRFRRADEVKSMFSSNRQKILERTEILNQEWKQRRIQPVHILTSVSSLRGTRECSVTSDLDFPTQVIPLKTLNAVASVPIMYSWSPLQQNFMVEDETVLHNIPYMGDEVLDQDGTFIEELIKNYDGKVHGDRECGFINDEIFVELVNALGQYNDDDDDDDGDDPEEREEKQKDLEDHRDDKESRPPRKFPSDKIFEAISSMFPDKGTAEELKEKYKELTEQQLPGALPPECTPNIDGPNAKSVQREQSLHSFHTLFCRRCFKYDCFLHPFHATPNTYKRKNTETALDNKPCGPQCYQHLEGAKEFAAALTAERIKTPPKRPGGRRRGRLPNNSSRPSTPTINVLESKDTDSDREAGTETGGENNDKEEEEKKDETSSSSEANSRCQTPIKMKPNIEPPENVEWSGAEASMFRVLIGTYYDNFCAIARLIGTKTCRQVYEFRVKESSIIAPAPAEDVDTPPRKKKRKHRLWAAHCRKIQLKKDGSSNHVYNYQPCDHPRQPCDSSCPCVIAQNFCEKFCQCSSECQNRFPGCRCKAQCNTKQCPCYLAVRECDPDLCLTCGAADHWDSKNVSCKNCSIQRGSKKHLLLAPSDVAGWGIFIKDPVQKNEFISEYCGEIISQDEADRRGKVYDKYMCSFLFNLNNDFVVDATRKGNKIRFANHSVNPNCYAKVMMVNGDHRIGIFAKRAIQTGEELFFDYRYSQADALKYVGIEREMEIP

[15] = system: Histone-lysine N-methyltransferase EZH2 (Homo sapiens), Q15910 [Y641C]; experiment: Inhibition of EZH2 Y641C mutant (unknown origin) at 10 uM using SAM as substrate measured up to 960 mins by AlphaScreen microplate reader assay relative to control; details: time min <=960
Chain of Histone-lysine N-methyltransferase EZH2 (Homo sapiens), Q15910 [Y641C] (Q15910 whole entry Y641C): as the sequence (Q15910 whole entry, looked up, stated change not applied) above, with Y641C counted along it

[16] = system: Histone-lysine N-methyltransferase EZH2 (Homo sapiens), Q15910 [Y641H]; experiment: Inhibition of EZH2 Y641H mutant (unknown origin) at 10 uM using SAM as substrate measured up to 960 mins by AlphaScreen microplate reader assay relative to control; details: time min <=960
Homo sapiens = species: Homo sapiens; experiment: Inhibition of EZH2 (unknown origin) interaction with EED (unknown origin) at 10 uM relative to control
[17] = Antiproliferative activity against human WSUDLCL2 cells harboring EZH2 Y641F mutant assessed as inhibition of cell growth measured after 6 days by CellTiter-Glo luminescent assay; type: functional; details: WSUDLCL2, 144 h, time 6 day
Raji = experiment: Antiproliferative activity against human Raji cells expressing wild type EZH2 assessed as inhibition of cell growth measured after 6 days by CellTiter-Glo luminescent assay; details: 144 h
Pfeiffer [18] = experiment: Antitumor activity against human Pfeiffer cells harboring EZH2 A677G mutant xenografted in NCG mouse assessed as tumor growth inhibition at 50 mg/kg, po BID via gavage measured after 28 days relative to control; type: functional; details: 672 h, time 28 day, read-out: TGI
Pfeiffer [19] = experiment: Antitumor activity against human Pfeiffer cells harboring EZH2 A677G mutant xenografted in NCG mouse assessed as tumor growth inhibition at 200 mg/kg, po BID via gavage measured after 28 days relative to control; type: functional; details: 672 h, time 28 day, read-out: TGI
KARPAS-422 [20] = experiment: Antitumor activity against human KARPAS-422 cells harboring EZH2 Y641N mutant xenografted in NCG mouse assessed as tumor growth inhibition at 50 mg/kg, po BID via gavage measured after 28 days relative to control; type: functional; details: KARPAS-422, po, 672 h, time 28 day, read-out: TGI
KARPAS-422 [21] = experiment: Antitumor activity against human KARPAS-422 cells harboring EZH2 Y641N mutant xenografted in NCG mouse assessed as tumor growth inhibition at 100 mg/kg, po BID via gavage measured after 28 days relative to control; type: functional; details: KARPAS-422, po, 672 h, time 28 day, read-out: TGI
KARPAS-422 [22] = experiment: Antitumor activity against human KARPAS-422 cells harboring EZH2 Y641N mutant xenografted in NCG mouse assessed as tumor growth inhibition at 200 mg/kg, po BID via gavage measured after 28 days relative to control; type: functional; details: KARPAS-422, po, 672 h, time 28 day, read-out: TGI
[23] = AUC (0 to t) in mouse at 10 mg/kg, po measured up to 24 hrs by LC-MS/MS analysis; type: ADME, organism-based; parameters: route oral, dose 10 mg/kg, time <=24; details: in vivo
[24] = AUC (0 to infinity) in mouse at 10 mg/kg, po measured up to 24 hrs by LC-MS/MS analysis; type: ADME, organism-based; parameters: route oral, dose 10 mg/kg, time <=24; details: in vivo
[25] = Apparent volume of distribution in mouse at 10 mg/kg, po measured up to 24 hrs by LC-MS/MS analysis; type: ADME, organism-based; details: in vivo
[26] = Oral bioavailability in mouse at 10 mg/kg measured up to 24 hrs by LC-MS/MS analysis; type: ADME, organism-based; details: in vivo
[27] = Half life in mouse at 1 mg/kg, iv measured up to 24 hrs by LC-MS/MS analysis; type: ADME, organism-based; details: in vivo
[28] = Cmax in mouse at 1 mg/kg, iv measured up to 24 hrs by LC-MS/MS analysis; type: ADME, organism-based; parameters: route intravenous, dose 1 mg/kg, time <=24; details: in vivo
KARPAS-422 [29] = experiment: Antitumor activity against human KARPAS-422 cells harboring EZH2 Y641N mutant xenografted in NCG mouse assessed as change in tumor weight at 50 mg/kg, po BID via gavage measured after 28 days (reference value: 2.14 g); type: functional; details: time 28 day
KARPAS-422 [30] = experiment: Antitumor activity against human KARPAS-422 cells harboring EZH2 Y641N mutant xenografted in NCG mouse assessed as change in tumor weight at 100 mg/kg, po BID via gavage measured after 28 days (reference value: 2.14 g); type: functional; details: time 28 day

half-life [1]: 1.45 h
Vz [2]: 36.559 L/kg
AUC(0-inf) [3]: 195 ng·h/mL
Vd [4]: 9.1 L/kg
inhibition [5]: 0%
inhibition [6]: 1%
inhibition [7]: 8%
inhibition [8]: 0%
inhibition [9]: 0%
inhibition [10]: 0%
inhibition [11]: 9%
inhibition [12]: 10%
inhibition [13]: 2%
inhibition [14]: 100%
inhibition [15]: 95%
inhibition [16]: 81%
inhibition (Homo sapiens): 21%
GI50 (Raji): > 10000 nM
AUC(0-t) at 24 h [23]: 1000 ng·h/mL
AUC(0-inf) [24]: 1000 ng·h/mL
Vz [25]: 18.638 L/kg
bioavailability [26]: 27%
t1/2 [27]: 5.38 h
Cmax [28]: 1240 ng/mL
SMILES: CCN(C(=O)C1CC1)c1cc(-c2ccc(N3CCN(CC4CC4)CC3)nc2C)cc(C(=O)NCc2c(C)cc(C)[nH]c2=O)c1C
GI50 [17]: 140 nM
inhibition in vivo at 50 mg/kg (Pfeiffer [18]): 91.8%
inhibition in vivo at 200 mg/kg (Pfeiffer [19]): 100%
inhibition in vivo at 50 mg/kg (KARPAS-422 [20]): 47.7%
inhibition in vivo at 100 mg/kg (KARPAS-422 [21]): 70.1%
inhibition in vivo at 200 mg/kg (KARPAS-422 [22]): 97.3%
Activity (KARPAS-422 [29]): 1.17 g
Activity (KARPAS-422 [30]): 0.64 g
